Test results from patent US6723710B2, “Compositions for inhibiting arginase activity” (The Trustees of the University of Pennsylvania, priority 1997, dated 2004).
Entries after “also recorded” stand apart in the source; their conditions may differ.

What was measured:
IAS arginase activity = assay: arginase activity in IAS homogenate; format: biochemical, opossum
Text: (§1) Tissue samples of the opossum internal anal sphincter muscle (IAS), adjoining rectal tissue, liver, and brain were homogenized using an ULTRATURRAX™ tissue homogenizer (Tekamr, Cincinnati, Ohio) in a solution comprising 10 millimolar Tris-HCl, 150 millimolar KCl, and 25 millimolar MnCl2, at pH 7.4. The homogenates were dialyzed overnight against the same solution. Dialyzed homogenates were centrifuged to remove insoluble material and concentrated with Amicon CENTRICON™ 30 microconcentrators to yield stock protein preparations having protein concentrations of 2.4 milligrams per milliliter for IAS smooth muscle, 3.6 milligrams per milliliter for rectal smooth muscle, 3 milligrams per milliliter for brain, and 17.5 milligrams per milliliter for liver. Protein concentrations were estimated with the Pierce Coomassie Protein Reagent kit using bovine serum albumin as a standard.
Arginase activity in tissue homogenates was evaluated using the radioactive L-[guanidino^14C]arginine assay of Rüegg and Russell (1980, Anal. Biochem. 102:206-212). Assays were performed using a solution comprising 100 millimolar CHES-NaOH and 0.1 millimolar MnCl2 at pH 9.0. The reactions were initiated by addition of 5 microliters of tissue homogenate to 45 microliters of reaction mixture that contained the CHES buffer, the appropriate concentration of arginine (0.5 to 5 millimolar) and about 5.0×10^4 counts per minute of L-[guanidino-^14C]arginine. IAS, rectal muscle, and brain homogenates were incubated with the assay mixture at room temperature for one hour, and the liver sample was incubated for 5 minutes. […] Urea was separated from non-reacted L-[guanidino-^14C]arginine by treatment with 200 μl of 1:1 v/v slurry of DOWEX™ 50W-X8 in water, and quantitated by adding 200 microliters of the supernatant from the DOWEX™ treatment to 3 milliliters of LIQUISCENT™ (National Diagnostics) for liquid scintillation counting in a Beckman LS 5000CE counter. The data were analyzed using double-reciprocal plots of the initial velocity measurements; standard errors were determined by regression analysis. […]

rat liver arginase = target: T1, rat liver arginase (Rattus norvegicus, UniProt P07824); assay: continuous chromogenic arginase assay with substrate 1-nitro-3-guanidinobenzene (compound 18); format: biochemical; design: made in house; conditions: 2 millimolar compound 18 as substrate; pseudo-turnover number, smaller = better inhibition
T1 sequence (P07824 1-323): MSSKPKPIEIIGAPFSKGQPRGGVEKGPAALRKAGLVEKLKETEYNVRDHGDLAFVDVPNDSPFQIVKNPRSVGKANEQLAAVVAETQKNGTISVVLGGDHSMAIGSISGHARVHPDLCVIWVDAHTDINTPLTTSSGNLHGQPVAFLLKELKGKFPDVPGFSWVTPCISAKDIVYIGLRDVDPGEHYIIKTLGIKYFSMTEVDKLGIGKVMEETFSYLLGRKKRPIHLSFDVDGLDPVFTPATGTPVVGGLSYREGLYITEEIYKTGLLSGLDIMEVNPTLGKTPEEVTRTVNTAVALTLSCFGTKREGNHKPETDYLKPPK
Description: The activity of wild-type arginase was monitored spectrophotometrically using a Pharmacia BIOTECH ULTROSPEC™ 2000. Assays were performed in a solution comprising 100 micromolar MnCl2 and 50 millimolar bicine-NaOH (pH 9.0). […] Eadie-Hofstee plots were used to analyze the data.

NO synthase = target: T2, NO synthase (Homo sapiens, UniProt P29475); assay: Nitric Oxide Synthase-ABHA assay (NO2-/NO3- production); format: biochemical; conditions: 0.1 millimolar or 1.0 millimolar ABHA
T2 construct: purchased Biomol
T2 sequence (P29475 whole entry): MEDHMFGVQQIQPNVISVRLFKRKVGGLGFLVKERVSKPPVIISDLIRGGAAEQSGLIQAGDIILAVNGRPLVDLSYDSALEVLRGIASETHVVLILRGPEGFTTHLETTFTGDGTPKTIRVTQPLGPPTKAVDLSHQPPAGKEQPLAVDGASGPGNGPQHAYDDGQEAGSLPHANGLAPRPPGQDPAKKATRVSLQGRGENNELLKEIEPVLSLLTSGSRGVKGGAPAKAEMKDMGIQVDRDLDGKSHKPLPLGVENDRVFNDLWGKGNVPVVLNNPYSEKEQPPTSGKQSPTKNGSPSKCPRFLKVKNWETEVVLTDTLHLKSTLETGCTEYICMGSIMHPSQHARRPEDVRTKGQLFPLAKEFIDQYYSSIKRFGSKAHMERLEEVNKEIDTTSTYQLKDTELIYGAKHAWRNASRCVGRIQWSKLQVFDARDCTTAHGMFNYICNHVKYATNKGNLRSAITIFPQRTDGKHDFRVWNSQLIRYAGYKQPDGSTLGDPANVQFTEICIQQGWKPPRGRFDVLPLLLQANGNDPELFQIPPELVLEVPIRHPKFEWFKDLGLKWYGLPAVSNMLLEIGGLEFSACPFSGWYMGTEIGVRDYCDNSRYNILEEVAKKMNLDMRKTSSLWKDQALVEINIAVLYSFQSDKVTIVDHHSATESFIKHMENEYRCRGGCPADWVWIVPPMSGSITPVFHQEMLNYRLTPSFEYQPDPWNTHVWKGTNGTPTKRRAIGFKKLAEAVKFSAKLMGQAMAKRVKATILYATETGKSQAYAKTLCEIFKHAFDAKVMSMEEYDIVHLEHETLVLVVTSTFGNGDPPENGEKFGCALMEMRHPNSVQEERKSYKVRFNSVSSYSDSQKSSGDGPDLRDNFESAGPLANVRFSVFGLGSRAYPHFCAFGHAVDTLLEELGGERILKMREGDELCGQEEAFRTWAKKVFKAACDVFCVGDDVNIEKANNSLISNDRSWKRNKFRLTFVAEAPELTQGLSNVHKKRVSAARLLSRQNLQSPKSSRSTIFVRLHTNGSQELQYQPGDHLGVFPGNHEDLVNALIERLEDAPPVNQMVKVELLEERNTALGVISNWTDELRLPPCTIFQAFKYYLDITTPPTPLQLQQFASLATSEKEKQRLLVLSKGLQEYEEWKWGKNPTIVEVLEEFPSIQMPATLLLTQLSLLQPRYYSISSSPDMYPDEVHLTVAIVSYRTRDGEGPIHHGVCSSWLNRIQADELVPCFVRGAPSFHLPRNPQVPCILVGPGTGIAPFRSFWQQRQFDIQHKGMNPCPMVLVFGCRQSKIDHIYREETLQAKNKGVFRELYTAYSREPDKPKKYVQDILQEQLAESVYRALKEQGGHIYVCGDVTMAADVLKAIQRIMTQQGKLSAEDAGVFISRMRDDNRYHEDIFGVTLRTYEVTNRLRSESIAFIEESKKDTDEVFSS
Text: NADPH, FAD, FMN, L-arginine, N-(2-hydroxyethyl)piperazine-N-2-ethanesulfonic acid (HEPES) (6R)-5,6,7,8-tetrahydro-L-biopterin (BH4), aminoguanidine, CaCl2, and phosphodiesterase cyclic nucleotide activator (calmodulin) were purchased from Sigma Chemical Company (St. Louis, Mo.). Neuronal NO synthase was purchased from Biomol, dialyzed to remove beta-mercaptoethanol, and concentrated to 0.1 milligram per milliliter. The nitric oxide synthase colorimetric assay kit was purchased from Calbiochem. Materials were used without further purification. The effect of ABHA on NO synthesis was assayed by monitoring the sum of NO2^− and NO3^− production, as described (Verdon et al., 1995, Anal. Biochem. 224:502-508). The enzyme solution was shaken at 37° C. for 15 minutes with 50 millimolar HEPES (pH 7.5), 100 micromolar NADPH, 4 micromolar FAD, 4 micromolar FMN, 6 micromolar BH4, 100 micromolar L-arginine, 0.0-1.0 millimolar ABHA, and 0.02 milligram per milliliter NO synthase in a final volume of 100 microliters. For experiments in which neuronal NO synthase was used, 1 millimolar CaCl2 and 100 micrograms per milliliter calmodulin were also added. Reactions were stopped by incubating the reaction mixture at 100° C. for 3 minutes. […] Absorbance at 540 nanometers was used to quantify the extent of NOx production.

rectum arginase activity = assay: arginase activity in rectum homogenate; format: biochemical, opossum
Text: as §1
Arginase activity in tissue homogenates was evaluated using the radioactive L-[guanidino^14C]arginine assay of Rüegg and Russell (1980, Anal. Biochem. 102:206-212). Assays were performed using a solution comprising 100 millimolar CHES-NaOH and 0.1 millimolar MnCl2 at pH 9.0. The reactions were initiated by addition of 5 microliters of tissue homogenate to 45 microliters of reaction mixture that contained the CHES buffer, the appropriate concentration of arginine (0.5 to 5 millimolar) and about 5.0×10^4 counts per minute of L-[guanidino-^14C]arginine. IAS, rectal muscle, and brain homogenates were incubated with the assay mixture at room temperature for one hour, and the liver sample was incubated for 5 minutes. The reactions were stopped by addition of 200 microliters of a stop solution containing 0.25 molar acetic acid, 7 molar urea, and 10 millimolar […] at pH 4.5. Arginase has essentially no activity at the low pH of the stop solution. [^14C] Urea was separated from non-reacted L-[guanidino-^14C]arginine by treatment with 200 μl of 1:1 v/v slurry of DOWEX™ 50W-X8 in water, and quantitated by adding 200 microliters of the supernatant from the DOWEX™ treatment to 3 milliliters of LIQUISCENT™ (National Diagnostics) for liquid scintillation counting in a Beckman LS 5000CE counter. The data were analyzed using double-reciprocal plots of the initial velocity measurements; standard errors were determined by regression analysis.
Assays in the presence of the inhibitors N^ω-hydroxy-L-arginine (1 to 100 micromolar) and ABHA (0.05 to 100 micromolar) were performed as described above. The amino acid D-ornithine served as a control in these experiments, since this amino acid, unlike L-omithine, is not an inhibitor of arginase.

arginase = target: T3, arginase (Rattus norvegicus, UniProt P07824); assay: isothermal titration calorimetry; format: binding; design: made in house
T3 sequence (P07824 1-323): T1 sequence (P07824 1-323)
Description: All calorimetry experiments were conducted on a MCS isothermal calorimeter from MicroCal, Inc. (Northampton, Mass.). Arginase was exhaustively dialyzed against a solution comprising 100 micromolar MnCl2 and 50 millimolar bicine-NaOH (pH 8.5). […] Prior to the titration experiment, samples were de-gassed under vacuum for 5 minutes. […] The contents of the sample cell were titrated with 30-40 aliquots (2.5 microliters each) of inhibitor (an initial 1 microliters injection was made, but not used in data analysis). After each injection, the heat change was measured and converted to the corresponding enthalpy value. The reaction mixture was continuously stirred at 400 rotations per minute during titration. Control experiments were carried out by titrating the inhibitor into the buffer solution under identical experimental conditions. Data analysis was performed using ORIGIN™ software provided with the instrument. The calorimetric data are presented with the background titrations subtracted from the experimental data. The amount of heat produced per injection was calculated by integration of the area under each peak. The data were fit to the following equation, […]

SMILES: N[C@@H](CCCCB(O)O)C(=O)O [compound 7, 2(S)-amino-6-boronohexanoic acid]
- IC50 (IAS arginase activity; IAS, read-out: IC50 for inhibition of arginase activity, IAS homogenate): 100 nM
- Ki (IAS arginase activity; arginine fixed at Km, assuming competitive inhibition, read-out: estimated Ki, IAS arginase activity): 50 nM
- tnpseudo (moles of inhibitor/mole of arginase) (rat liver arginase): 0.7 ± 0.1 moles of inhibitor/mole of arginase
- inhibition of NO synthase (NO synthase): does not inhibit NO synthase; also recorded: no inhibition
- Ki (rectum arginase activity; arginine fixed at Km, assuming competitive inhibition, read-out: estimated Ki, rectum arginase activity): 26 nM
- times more potent than L-HO-Arg, rectum (rectum arginase activity; rectum homogenate): 840 times
- IC50 (rectum arginase activity; rectum, read-out: IC50 for inhibition of arginase activity, rectum homogenate): 50 nM
- Kd (arginase; 100 micromolar MnCl2, 50 millimolar bicine pH 8.5, 25° C., read-out: Kd determined by titration calorimetry): 110 nM
- association constant (Ka) (arginase; pH 8.5, 25° C.): 8.89×10^6 inverse molar
- enthalpy change (ΔH) of binding (arginase; pH 8.5, 25° C.): −12.97 kilocalories per mole
- stoichiometry (n), moles bound per mole of arginase monomer (arginase; pH 8.5, 25° C.): 1.07
